We go through six compounds from EP0424538A1, “PYRIDINE DERIVATIVES AND THEIR SALTS, AND INSECTICIDAL/ACARICIDAL AGENT CONTAINING THE SAME AS ACTIVE INGREDIENT” (IDEMITSU KOSAN COMPANY LIMITED, priority 1989, dated 1990).

One assay concerns larvae (3-periods old) of tobiirounka. Nature of the assay: rice stalk immersion test, life or death of larvae. The format is in vivo. As to conditions: 168 h; rice stalk immersed 1 minute in 500 ppm chemical solution; checked after 7 days at 25 °C; read-out: % dead larvae. The method, then:
A stalk of rice cut in a length of 10 cm was immersed for 1 minutes in a chemical solution of one of the compounds obtained in the examples (excepting the compound of Example 4) in a concentration of 500 ppm and, after air-drying, put into a test tube containing water, in which larvae (3-periods old) of tobiirounka were released and kept standing in a thermostatic chamber at 25 °C with a cotton plug.
After 7 days of the testing, life or death of the above mentioned larvae was checked to find 100% dead larvae with each of the compounds obtained in the examples. Comparative Test Example.
In place of the compounds used in Test Example, the same test was undertaken by using: . [drawing 136]
As for `CCCCc1cnccc1CC`, the mortality at 500 µg/mL amounted to 92%.

On to `C=CCC(CC=C)c1ccncc1C` [CA 85, 32850y, 1976], for which the mortality at 500 µg/mL was 90%.

Consider `CC(C)(C)c1ccncc1C(C)(C)C` [CA 100, 155997n, 1984], for which the mortality at 500 µg/mL worked out at 92%.

For `Cc1cnccc1C(C)CCC1CCCCC1` (stereo not drawn) [CA 109, 6426j, 1988], the mortality at 500 µg/mL is 98%.

In the next assay the test system is cabbage maggot (Hylemya brassicae).
Assay: not given
As to conditions: from Chemical Abstracts and Journal of Economic Entomology, 41, 98, 1948; cited from earlier work.
Take `CCCCC(CCCC)c1ccncc1` [4-(5-nonyl) pyridine]: the “activity against cabbage maggot” value was “no activity was recognized”.

Take `CCCCCc1ccncc1` [4-n-amyl pyridine]: the “activity against cabbage maggot” value was “no activity was recognized”.
